Laboratory results published in patent US7122214B2, “Drynaria extractions for treating osteoporosis and their extraction process” (priority 2000, dated 2006).

Key:
[1] = Inventors' investigation of activity of improving osteoporosis (no method given); settings: no data or method given
Primary Osteoporosis [2] = test: Clinical test of RDE on primary osteoporosis: bone density by double-energy X-ray bone density meter; type: in vivo, human; settings: for Bone density of collum femoris / Bone density of trigonal area of femur / Bone density of trochanteric of femur / Bone density of lumber (L2–L4): RDE 180 mg po tid, α-D3 0.5 μg po bid; for Bone density of lumber (L2–L4): n=17 per group
Procedure: (§1) The drugs with the following dosages and contents are used unless additional explanations.
(§2) Extracts in this present invention: capsules of preparation example 1, each capsule contains 0.18 g of effective component. Positive control medicine: α-D3, (synthesized by TEVA PHARMACEUTICALS, Israel, prepared by Sino-US Kunming BARKER NORTON PHARMACEUTICAL CO., LTD), each capsule contains 0.5 μg of effective component)
(§3) Diagnostic criteria: Comprehensive Diagnostic Grades for Primary Osteoporosis, according to the diagnostic criteria established by Specialized Committee of Osteoporosis of Chinese Association of Geriatrics. (cf. Gu-zhi-shu-song-zheng [M], p169–171, LIU Zhonghou eds. Chemical Industrial Press, Guangzhou, 1992)
(§4) According to the diagnostic criteria mentioned above, 70 cases of osteoporosis are randomly divided into treatment group with RDE and control group with α-D3. RDE is administrated 180 mg, per os, tid, for 6 months-2 period of treatment. And α-D3 is administrated 0.5 μg, per os, bid, for 6 months too.
(§5) Bone density of lumbar (L2–L4) and top-femur (collum femoris, trigonal area of femur, trochanteric of femur) is checked respectively by Double-Energy X-ray Bone Density Meter (LUNAR DPX-L DEXA bone densitometer,US). The unit is g/cm^2. And an Ultrasonic Bone Densitometer (model 2000-SYS-220, METRA Co., Israel) is employed to check the bone density of mid-portion of tibia.

Primary Osteoporosis [3] = test: Clinical test of RDE on primary osteoporosis: ultrasonic bone density of mid-portion of tibia; type: in vivo, human; settings: for ultrasonic bone density, Age matched (difference value) / ultrasonic bone density, Young adult (difference value): RDE 180 mg po tid (n=16), α-D3 0.5 μg po bid (n=15)
Procedure: as §1, §2, §3, §4, §5

[4] = tested on: Tretinoin-induced osteoporosis in rats; test: Bone density in Tretinoin-induced osteoporosis model in rats; type: in vivo, Wistar rats
Procedure: (§6) Observe the effect of RDE in this invention on both Tretinoin-induced and Ovariectomized (OVX) osteoporosis model in rats.
(§7) RDE was produced according to Example 1 (Per gram extract is equivalent to 66.67 g crude drugs). RDE was dissolved in distilled water to a concentration of 0.47 mg/ml before administration. And administration was conducted via gastric tube. Tretinoin is manufactured by Chongqing Huabang Pharmaceuticals, Ltd. and was suspended to the concentration of 1.5% with distilled water. Control drug α-D3 was manufactured by TEVA PHARMACEUTICALS, Israel, which is solved in distilled water to the concentration of 0.03 μg/ml before using and administrated orally via gastric tube.
(§8) Tretinoin-induced osteoporosis rats: sixty female W istar rats, 16-week-old, mean weight 234.85±15.32 g. Ovariectomized rats: sixty female Wistar rats, 12-week-old, mean weight 183.46±12.45 g. All the animals are obtained from the Experimental Animal Center of Chinese Military Medical Academy.
(§9) Bone Biomechanics Rheometer was manufactured by Stevens Company, Great Britain (model QTS-25). X ray Bone-density-meter was manufactured by Norland Company, USA (model XR-26). The others are all obtained from market.
(§10) 4. Dose Selections and Groups: • (1) Tretinoin-induced group: Sixty rats are randomly allocated to six groups (10 rats per group). Blank group: control animals received PSS/d (physiological saline solution) alone. […]
(§11) The dose administered to each animal is calculated from the individual body weight recorded at the end of each week. […]
(§12) 7. […] Bone biomechanics measurements: three point bending tests of left thighbone of each animal are performed; load-deformation curve is recorded to measure the biomechanics index. […] Bone structural mechanics parameters: breaking load, elastic load, maximum radius, elastic radius, maximum energy absorption; bone material mechanics parameters: firstly calculated the Femoral Section Inertial Moment, then computed the maximum strain, elastic strain, maximum stress, elastic stress and elastic modulus according to the formulae. […]

[5] = tested on: Ovariectomized (OVX) rats; test: Bone density in Ovariectomized (OVX) osteoporosis model in rats; type: in vivo, Wistar rats
Procedure: as §6, §7, §8, §9, §10, §11, §12

[6] = tested on: Tretinoin-induced osteoporosis in rats; test: Bone biomechanics (three point bending of left thighbone) in Tretinoin-induced osteoporosis rats; type: in vivo, Wistar rats
Procedure: as §6, §7, §8, §9
4. Dose Selections and Groups: • (1) Tretinoin-induced group: Sixty rats are randomly allocated to six groups (10 rats per group). Blank group: control animals received PSS/d (physiological saline solution) alone. Model group: Tretinoin is given orally 70 mg/kg/d; α-D3 group: both tretinoin and α-D3 are given orally 70 mg/kg/d and 0.002 μg/kg/d respectively; RDE low-dose group: both tretinoin and RDE are given orally 70 mg/kg/d and 54 mg/kg/d respectively; RDE medium-dose group: tretinoin 70 mg/kg/d and RDE 108 mg/kg/d; RDE high-dose group: tretinoin 70 mg/kg/d and RDE 216 mg/kg/d. • (2) Ovariectomized (OVX) rats group: Sixty rats are randomly allocated to six groups (10 rats per group). Blank group is the normal rats. All the other groups are removed amphi-ovaries. Model group received PSS only; α-D3 group: α-D3 is administrated orally 0.002 μg/kg/d; And RDE is administrated orally in the dose of 54, 108, 216 mg/kg/day to OVX rats respectively, corresponding to RDE groups of low-dose, medium-dose and high-dose.
The dose administered to each animal is calculated from the individual body weight recorded at the end of each week.
Tretinoin-induced osteoporosis groups: Blank group received PSS during the course of experiment. The other groups commenced treatment on the same day, designated study Day 1, and once-daily tretinoin orally given for 14 days, after which they stopped administrating tretinoin. Both blank and model groups are given PSS in Day 15, and α-D3 group is given α-D3, RDE groups are given the corresponding dose of RDE orally for 14 days. The final dose is given in the Day 28 before sacrificed. Investigation of Bone Density and Bone-biomechanics are performed in the Day 29.
7. Measurements • 7.1. Bone density measurements are performed on No.2–4 lumbar spines and right thighbone of each animal. • 7.2. Bone biomechanics measurements: three point bending tests of left thighbone of each animal are performed; load-deformation curve is recorded to measure the biomechanics index. Experimental parameters: span 20 mm, loading velocity 10 mm/min. Bone structural mechanics parameters: breaking load, elastic load, maximum radius, elastic radius, maximum energy absorption; bone material mechanics parameters: firstly calculated the Femoral Section Inertial Moment, then computed the maximum strain, elastic strain, maximum stress, elastic stress and elastic modulus according to the formulae. [Results]

[7] = tested on: Ovariectomized (OVX) rats; test: Bone biomechanics (three point bending of left thighbone) in Ovariectomized (OVX) rats; type: in vivo, Wistar rats
Procedure: Observe the effect of RDE in this invention on both Tretinoin-induced and Ovariectomized (OVX) osteoporosis model in rats. […] RDE was dissolved in distilled water to a concentration of 0.47 mg/ml before administration. And administration was conducted via gastric tube. Tretinoin is manufactured by Chongqing Huabang Pharmaceuticals, Ltd. and was suspended to the concentration of 1.5% with distilled water. Control drug α-D3 was manufactured by TEVA PHARMACEUTICALS, Israel, which is solved in distilled water to the concentration of 0.03 μg/ml before using and administrated orally via gastric tube. Tretinoin-induced osteoporosis rats: sixty female […]-old, mean weight 234.85±15.32 g. Ovariectomized rats: sixty female Wistar rats, 12-week-old, mean weight 183.46±12.45 g. All the animals are obtained from the Experimental Animal Center of Chinese Military Medical Academy. Bone Biomechanics Rheometer was manufactured by Stevens Company, Great Britain (model QTS-25). X ray Bone-density-meter was manufactured by Norland Company, USA (model XR-26). The others are all obtained from market. 4. Dose Selections and Groups: • (1) Tretinoin-induced group: Sixty rats are randomly allocated to six groups (10 rats per group). Blank group: control animals received PSS/d (physiological saline solution) alone. Model group: Tretinoin is given orally 70 mg/kg/d; α-D3 group: both tretinoin and α-D3 are given orally 70 mg/kg/d and 0.002 μg/kg/d respectively; RDE low-dose group: both tretinoin and RDE are given orally 70 mg/kg/d and 54 mg/kg/d respectively; RDE medium-dose group: tretinoin 70 mg/kg/d and RDE 108 mg/kg/d; RDE high-dose group: tretinoin 70 mg/kg/d and RDE 216 mg/kg/d. • (2) Ovariectomized (OVX) rats group: Sixty rats are randomly allocated to six groups (10 rats per group). Blank group is the normal rats. All the other groups are removed amphi-ovaries. Model group received PSS only; α-D3 group: α-D3 is administrated orally 0.002 μg/kg/d; And RDE is administrated orally in the dose of 54, 108, 216 mg/kg/day to OVX rats respectively, corresponding to RDE groups of low-dose, medium-dose and high-dose. The dose administered to each animal is calculated from the individual body weight recorded at the end of each week. OVX rats groups: Both blank and model groups are given the same volume of distilled water orally, All the other groups commenced treatment according to the way mentioned above for 12 weeks after which animals are sacrificed and investigation of Bone Density and Bone-biomechanics are performed. 7. Measurements • 7.1. […] Bone biomechanics measurements: three point bending tests of left thighbone of each animal are performed; load-deformation curve is recorded to measure the biomechanics index. Experimental parameters: span 20 mm, loading velocity 10 mm/min. Bone structural mechanics parameters: breaking load, elastic load, maximum radius, elastic radius, maximum energy absorption; bone material mechanics parameters: firstly calculated the Femoral Section Inertial Moment, then computed the maximum strain, elastic strain, maximum stress, elastic stress and elastic modulus according to the formulae. [Results]

[8] = α-D3 0.002 μg/kg/d oral 14 days after tretinoin 70 mg/kg/d 14 days
[9] = OVX rats, α-D3 0.002 μg/kg/d oral 12 weeks

C[C@@H]1O[C@@H](O[C@H]2[C@H](Oc3cc(O)c4c(c3)O[C@H](c3ccc(O)cc3)CC4=O)O[C@H](CO)[C@@H](O)[C@@H]2O)[C@H](O)[C@H](O)[C@H]1O [naringin]
activity of improving osteoporosis [1]: has the activity of improving osteoporosis | efficiency in improving osteoporosis relative to the active extracts [1]: lower than the active extracts

C=C1/C(=C\C=C2/CCC[C@]3(C)[C@@H]([C@H](C)CCCC(C)C)CC[C@@H]23)C[C@@H](O)C[C@@H]1O [α-D3]
Bone density of collum femoris (Primary Osteoporosis [2]; Before-treatment (baseline)): 0.748 ± 0.095 g/cm^2 | Bone density of trigonal area of femur (Primary Osteoporosis [2]; Before-treatment (baseline)): 0.582 ± 0.125 g/cm^2 | Bone density of trochanteric of femur (Primary Osteoporosis [2]; Before-treatment (baseline)): 0.606 ± 0.109 g/cm^2 | Bone density of lumber (L2–L4) (Primary Osteoporosis [2]; Before-treatment (baseline)): 0.958 ± 0.180 g/cm^2 | Change of bone density of collum femoris after vs before treatment (Primary Osteoporosis [2]; after 3 and 6 months, within group): no significant difference | Bone density of collum femoris (Primary Osteoporosis [2]; after 3 months treatment): 0.744 ± 0.100 g/cm^2 | Bone density of trigonal area of femur (Primary Osteoporosis [2]; after 3 months treatment): 0.591 ± 0.124 g/cm^2 | Bone density of trochanteric of femur (Primary Osteoporosis [2]; after 3 months treatment): 0.616 ± 0.099 g/cm^2 | Bone density of lumber (L2–L4) (Primary Osteoporosis [2]; after 3 months treatment): 0.954 ± 0.179 g/cm^2 | Change of bone density of lumber (L2–L4) after vs before treatment (Primary Osteoporosis [2]; after 3 or 6 months treatment, within group): no improvement | Bone density of collum femoris (Primary Osteoporosis [2]; after 6 months treatment): 0.744 ± 0.093 g/cm^2 | Bone density of trigonal area of femur (Primary Osteoporosis [2]; after 6 months treatment): 0.581 ± 0.134 g/cm^2 | Bone density of trochanteric of femur (Primary Osteoporosis [2]; after 6 months treatment): 0.616 ± 0.094 g/cm^2 | Bone density of lumber (L2–L4) (Primary Osteoporosis [2]; after 6 months treatment): 0.958 ± 0.145 g/cm^2 | ultrasonic bone density, Age matched (difference value) (Primary Osteoporosis [3]; Before-treatment (baseline)): −1.433 ± 0.788 g/cm^2 | ultrasonic bone density, Young adult (difference value) (Primary Osteoporosis [3]; Before-treatment (baseline)): −1.993 ± 0.872 g/cm^2 | Speed sound, change self-compared within group (Primary Osteoporosis [3]; RDE P<0.01, α-D3 P<0.05): increase significantly | ultrasonic bone density, Age matched (difference value) (Primary Osteoporosis [3]; after 3 months treatment): −1.386 ± 0.908 g/cm^2 | ultrasonic bone density, Young adult (difference value) (Primary Osteoporosis [3]; after 3 months treatment): −1.953 ± 1.181 g/cm^2 | ultrasonic bone density, Age matched (difference value) (Primary Osteoporosis [3]; after 6 months treatment): −0.987 ± 1.068 g/cm^2 | ultrasonic bone density, Young adult (difference value) (Primary Osteoporosis [3]; after 6 months treatment): −0.593 ± 1.209 g/cm^2 | femoral bone density compared with model group ([4]; Tretinoin-induced osteoporosis rats (Table 9)): increased obviously | Bone density Lumber spine [4, 8]: 0.135 ± 0.005 g/cm^2 | Bone density thighbone [4, 8]: 0.137 ± 0.004 g/cm^2 | femoral bone density compared with model group ([5]; OVX rats (Table 10)): increased obviously | Bone density Lumber spine [5, 9]: 0.13 ± 0.009 g/cm^2 | Bone density thighbone [5, 9]: 0.13 ± 0.009 g/cm^2 | all the bone structural mechanics indicators compared with model group ([6]; Tretinoin-induced osteoporosis rats (Table 11)): increased significantly | Elastic load [6, 8]: 100.40 ± 7.00 N | Elastic strain (material) [6, 8]: 0.03 ± 0.01 | Elastic strain (structural) [6, 8]: 1.01 ± 0.14 mm | Elastic stress [6, 8]: 177.6 ± 51.3 N/mm^2 | Maximum energy observation [6, 8]: 635.73 ± 114.46 N-mm | Maximum load [6, 8]: 103.20 ± 3.40 N | Maximum strain (material) [6, 8]: 0.03 ± 0.009 | Maximum strain (structural) [6, 8]: 0.98 ± 0.14 mm | Maximum stress [6, 8]: 167.2 ± 44.5 N/mm^2 | Rigidity coefficient [6, 8]: 30561 ± 9194 N/mm^2 | all the bone structural mechanics indicators compared with model group ([7]; OVX rats (Table 12)): increased significantly | Area of bone cortes [7, 9]: 4.13 ± 0.99 | Elastic load [7, 9]: 88.6 ± 12.7 N | Elastic mould [7, 9]: 7992 ± 1132 | Elastic strain (material) [7, 9]: 0.03 ± 0.010 | Elastic stress [7, 9]: 147.2 ± 11.00 N/mm^2 | Maximum energy observation [7, 9]: 520.48 ± 108.44 N-mm^2 | Maximum load [7, 9]: 102.1 ± 2.90 N | Maximum strain (material) [7, 9]: 0.03 ± 0.006 | Maximum strain (structural) [7, 9]: 0.96 ± 0.10 mm | Maximum stress [7, 9]: 221.5 ± 46.50 N/mm^2 | Rigidity coefficient [7, 9]: 27508 ± 8073
